Laboratory results reported in PubChem BioAssay AID1918946 (Molecular Pharmacology Branch, DTP, NCI, 2023).
“And” between values parts separate entries of the source, which are not always exact repeats. Identical values can stand only once.

Test system: 885512-296-R-J2-PDC complex spheroid viability
Assay: Anticancer human tumor 885512-296-R-J2-PDC patient-derived breast carcinoma cell line growth inhibition
Conditions: for viability, T/C: stronger effect = lower value
How it was run: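 Multicellular complex spheroids of tumor cells with human endothelial cells (HUVEC) and mesenchymal stem cells; the LSD1 inhibitor iadademstat was combined with standard-of-care or investigational agents. Top concentration at or near clinical Cmax, half-log dilutions; final DMSO ≤0.25%.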

[1] = curve of first compound, second compound 0.1 µM
[2] = curve of first compound, second compound 0.316 µM
[3] = curve of first compound, second compound 1 µM
[4] = curve of first compound, second compound 3.16 µM
[5] = curve of first compound, second compound 10 µM
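Further: spheroids exposed to agents for 7 days before viability read.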

## O=C(C=Cn1cnc(-c2cc(C(F)(F)F)cc(C(F)(F)F)c2)n1)NNc1cnccn1 + NC1CC1c1ccc(-c2cccc(O)c2)cc1
[1]
  IC50: < 3.16 nM
[2]
  IC50: < 3.16 nM
[3]
  IC50: < 3.16 nM
[4]
  IC50: < 3.16 nM
[5]
  IC50: < 3.16 nM
Second compound 0.1 µM, first compound 0.00316 µM
  viability, T/C: 22.8%
Second compound 0.1 µM, first compound 0.01 µM
  viability, T/C: 11.1%
Second compound 0.1 µM, first compound 0.0316 µM
  viability, T/C: 1.78%
Second compound 0.1 µM, first compound 0.1 µM
  viability, T/C: 0.68%
Second compound 0.1 µM, first compound 0.316 µM
  viability, T/C: 0.55%
Second compound 0.1 µM, first compound 1 µM
  viability, T/C: 0.47%
Second compound 0.316 µM, first compound 0.00316 µM
  viability, T/C: 17.4%
Second compound 0.316 µM, first compound 0.01 µM
  viability, T/C: 11.5%
Second compound 0.316 µM, first compound 0.0316 µM
  viability, T/C: 1.98%
Second compound 0.316 µM, first compound 0.1 µM
  viability, T/C: 0.67%
Second compound 0.316 µM, first compound 0.316 µM
  viability, T/C: 0.5%
Second compound 0.316 µM, first compound 1 µM
  viability, T/C: 0.4%
Second compound 1 µM, first compound 0.00316 µM
  viability, T/C: 19%
Second compound 1 µM, first compound 0.01 µM
  viability, T/C: 10.3%
Second compound 1 µM, first compound 0.0316 µM
  viability, T/C: 2.51%
Second compound 1 µM, first compound 0.1 µM
  viability, T/C: 0.72%
Second compound 1 µM, first compound 0.316 µM
  viability, T/C: 0.52%
Second compound 1 µM, first compound 1 µM
  viability, T/C: 0.58%
Second compound 3.16 µM, first compound 0.00316 µM
  viability, T/C: 13.6%
Second compound 3.16 µM, first compound 0.01 µM
  viability, T/C: 10.3%
Second compound 3.16 µM, first compound 0.0316 µM
  viability, T/C: 2.71%
Second compound 3.16 µM, first compound 0.1 µM
  viability, T/C: 0.8%
Second compound 3.16 µM, first compound 0.316 µM
  viability, T/C: 0.52%
Second compound 3.16 µM, first compound 1 µM
  viability, T/C: 0.63%
Second compound 10 µM, first compound 0.00316 µM
  viability, T/C: 14.8%
Second compound 10 µM, first compound 0.01 µM
  viability, T/C: 8.29%
Second compound 10 µM, first compound 0.0316 µM
  viability, T/C: 2.21%
Second compound 10 µM, first compound 0.1 µM
  viability, T/C: 0.82%
Second compound 10 µM, first compound 0.316 µM
  viability, T/C: 0.71%
Second compound 10 µM, first compound 1 µM
  viability, T/C: 0.78%

## CCN(c1cc(-c2ccc(CN3CCOCC3)cc2)cc(C(=O)NCc2c(C)cc(C)[nH]c2=O)c1C)C1CCOCC1 + NC1CCC(NC2CC2c2ccccc2)CC1
[1]
  IC50: 1820 nM
[2]
  IC50: 1740 nM
[3]
  IC50: 2250 nM
[4]
  IC50: 2080 nM
[5]
  IC50: > 3000 nM
Second compound 0.1 µM, first compound 0.00949 µM
  viability, T/C: 118%
Second compound 0.1 µM, first compound 0.03 µM
  viability, T/C: 135%
Second compound 0.1 µM, first compound 0.0949 µM
  viability, T/C: 104%
Second compound 0.1 µM, first compound 0.3 µM
  viability, T/C: 117%
Second compound 0.1 µM, first compound 0.949 µM
  viability, T/C: 98.6%
Second compound 0.1 µM, first compound 3 µM
  viability, T/C: 12.3%
Second compound 0.316 µM, first compound 0.00949 µM
  viability, T/C: 131%
Second compound 0.316 µM, first compound 0.03 µM
  viability, T/C: 114%
Second compound 0.316 µM, first compound 0.0949 µM
  viability, T/C: 127%
Second compound 0.316 µM, first compound 0.3 µM
  viability, T/C: 94.5%
Second compound 0.316 µM, first compound 0.949 µM
  viability, T/C: 79.1%
Second compound 0.316 µM, first compound 3 µM
  viability, T/C: 26.1%
Second compound 1 µM, first compound 0.00949 µM
  viability, T/C: 135%
Second compound 1 µM, first compound 0.03 µM
  viability, T/C: 107%
Second compound 1 µM, first compound 0.0949 µM
  viability, T/C: 122%
Second compound 1 µM, first compound 0.3 µM
  viability, T/C: 87.2%
Second compound 1 µM, first compound 0.949 µM
  viability, T/C: 80.2%
Second compound 1 µM, first compound 3 µM
  viability, T/C: 39.9%
Second compound 3.16 µM, first compound 0.00949 µM
  viability, T/C: 141%
Second compound 3.16 µM, first compound 0.03 µM
  viability, T/C: 125%
Second compound 3.16 µM, first compound 0.0949 µM
  viability, T/C: 106%
Second compound 3.16 µM, first compound 0.3 µM
  viability, T/C: 102%
Second compound 3.16 µM, first compound 0.949 µM
  viability, T/C: 78.3%
Second compound 3.16 µM, first compound 3 µM
  viability, T/C: 35.8%
Second compound 10 µM, first compound 0.00949 µM
  viability, T/C: 110%
Second compound 10 µM, first compound 0.03 µM
  viability, T/C: 95.4%
Second compound 10 µM, first compound 0.0949 µM
  viability, T/C: 85.8%
Second compound 10 µM, first compound 0.3 µM
  viability, T/C: 82.7%
Second compound 10 µM, first compound 0.949 µM
  viability, T/C: 78.5%
Second compound 10 µM, first compound 3 µM
  viability, T/C: 55%

## CCc1c2c(nc3ccc(O)cc13)-c1cc3c(c(=O)n1C2)COC(=O)[C@]3(O)CC
Compound 0.000949 µM
  viability, T/C: 7.33% and 2.09%
Compound 0.003 µM
  viability, T/C: 4.69% and 2%
Compound 0.00949 µM
  viability, T/C: 4.28% and 1.07%
Compound 0.03 µM
  viability, T/C: 6.78% and 1.14%
Compound 0.0949 µM
  viability, T/C: 12.3% and 1.2%
Compound 0.3 µM
  viability, T/C: 3.96% and 1.27%
Curve of compound
  IC50: < 0.949 nM

## O=C(C=Cc1cccc(S(=O)(=O)Nc2ccccc2)c1)NO
Compound 0.00949 µM
  viability, T/C: 70% and 91.1%
Compound 0.03 µM
  viability, T/C: 60.1% and 44%
Compound 0.0949 µM
  viability, T/C: 32.8% and 28.1%
Compound 0.3 µM
  viability, T/C: 20.3% and 16.4%
Compound 0.949 µM
  viability, T/C: 13.7% and 2.92%
Compound 3 µM
  viability, T/C: 13.9% and 72.2%
Curve of compound
  IC50: 45.7 nM and 26 nM
